Columns and labels:
[1] = test system: Dirofilaria immitis microfilariae; assay: In Vitro Assay 2: Dirofilaria immitis microfilariae (DIROIM L1) motility; conditions: 72 h
C. elegans Slo-1a = C. elegans Slo-1a (Caenorhabditis elegans, UniProt Q95V25)
Sequence of C. elegans Slo-1a (Q95V25 whole entry): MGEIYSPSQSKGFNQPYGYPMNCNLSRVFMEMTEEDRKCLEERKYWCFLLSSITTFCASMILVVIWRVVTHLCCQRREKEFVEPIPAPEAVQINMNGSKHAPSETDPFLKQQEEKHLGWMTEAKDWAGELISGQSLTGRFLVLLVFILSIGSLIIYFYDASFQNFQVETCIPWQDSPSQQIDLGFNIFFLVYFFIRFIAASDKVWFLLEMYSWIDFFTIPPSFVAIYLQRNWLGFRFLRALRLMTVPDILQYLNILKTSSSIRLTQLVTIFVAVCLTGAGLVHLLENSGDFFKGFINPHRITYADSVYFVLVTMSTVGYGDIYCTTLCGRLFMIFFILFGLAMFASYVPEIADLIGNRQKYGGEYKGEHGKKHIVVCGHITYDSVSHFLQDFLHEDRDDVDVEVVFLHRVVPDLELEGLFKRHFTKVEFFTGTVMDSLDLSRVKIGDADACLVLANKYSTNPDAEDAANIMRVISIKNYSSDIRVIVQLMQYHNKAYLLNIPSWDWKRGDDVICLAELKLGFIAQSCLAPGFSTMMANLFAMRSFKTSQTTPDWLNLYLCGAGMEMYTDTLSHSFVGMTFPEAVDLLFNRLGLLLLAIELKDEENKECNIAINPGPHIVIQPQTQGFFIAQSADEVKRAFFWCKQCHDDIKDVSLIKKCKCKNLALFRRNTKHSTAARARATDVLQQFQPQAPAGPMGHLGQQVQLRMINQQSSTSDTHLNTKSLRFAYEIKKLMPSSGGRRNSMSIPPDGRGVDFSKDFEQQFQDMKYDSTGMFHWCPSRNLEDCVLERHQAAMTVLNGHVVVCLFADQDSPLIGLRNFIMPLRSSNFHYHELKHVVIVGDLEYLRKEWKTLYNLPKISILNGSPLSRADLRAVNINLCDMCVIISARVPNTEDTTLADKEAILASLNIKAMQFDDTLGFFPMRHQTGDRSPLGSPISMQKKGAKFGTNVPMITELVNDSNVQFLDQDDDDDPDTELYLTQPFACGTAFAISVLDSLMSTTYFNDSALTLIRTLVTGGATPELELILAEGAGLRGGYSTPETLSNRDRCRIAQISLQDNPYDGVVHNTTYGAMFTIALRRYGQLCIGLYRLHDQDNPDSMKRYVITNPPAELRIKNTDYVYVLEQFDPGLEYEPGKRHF
Procedure: In Vitro Assay 1: C. elegans Slo-1a—Action at a Recombinant C. elegans Cell Line
Cells were cultured at 37° C. and 5% CO2 in MEMalpha with Gutamax I (Invitrogen, Nr.: 32571), supplemented with 10% (v/v) heat inactivated fetal bovine serum (Invitrogen, Nr.: 10500), G418 (1 mg/ml, Invitrogen, Nr.: 10131). Cells were detached using Accutase (Sigma, Nr.: A6964).
Membrane Potential Measurements
Laboratory compound testing was performed on 384-well microtiter plates (MTPs, Greiner, Nr.: 781092). 8000 cells/well were plated onto 384-well MTPs and cultured for 20 to 24 hours at 37° C. and 5% CO2. After removal of the cell culture medium, the cells were washed once with tyrode (150 mM NaCl, 0.3 mM KCl, 2 mM CaCl2, 1 mM MgCl2, 0.8 mM NaH2PO4, 5 mM Glucose, 28 mM Hepes, pH 7.4) and then loaded with the voltage sensitive dye of the Membrane Potential Assay Kit diluted in tyrode for 1 h at room temperature.
After starting the measurement of fluorescence using a FLIPR Tetra(Molecular Devices, Exc. 510-545 nm, Emm. 565-625 nm), test compounds were added followed by the addition of KCl tyrode (final assay concentration: 70 mM KCl, 2 mM CaCl2, 1 mM MgCl2, 0.8 mM NaH2PO4, 5 mM Glucose, 28 mM Hepes, pH 7.4, including the voltage sensitive dye). The measurement was completed after 7 minutes.

Structure (SMILES)	EC50 [1]	EC50 (C. elegans Slo-1a)
CN(C)c1c(C(=O)N[C@H]2CCc3ccccc32)cnc2c(N3CCS(=O)(=O)CC3)c(F)ccc12 [Example 46, N-[(1S)-2,3-dihydro-1H-inden-1-yl]-4-(dimethylamino)-8-(1,1-dioxidothiomorpholin-4-yl)-7-fluoroquinoline-3-carboxamide]	< 10 µg/mL	316 to 5010 nM
CN(C)c1c(C(=O)N[C@H]2CCOc3ccccc32)cnc2c(C3=CCCCC3)cccc12 [Example 11, (S)—N-(Chroman-4-yl)-8-(cyclohex-1-en-1-yl)-4-(dimethylamino)quinoline-3-carboxamide]	< 1 µg/mL	3.16 to 31.6 nM
CC(C)C#Cc1cccc2c(N(C)C)c(C(=O)N[C@H]3CCOc4ccccc43)cnc12 [Example 1, (S)—N-(Chroman-4-yl)-4-(dimethylamino)-8-(3-methylbut-1-yn-1-yl)quinoline-3-carboxamide]	< 10 µg/mL	31.6 to 316 nM
COCC#Cc1cccc2c(N(C)C)c(C(=O)N[C@H]3CCOc4ccccc43)cnc12 [Example 2, (S)—N-(Chroman-4-yl)-4-(dimethylamino)-8-(3-methoxyprop-1-yn-1-yl)quinoline-3-carboxamide]	< 10 µg/mL	316 to 5010 nM
O=C(N[C@H]1CCOc2ccccc21)c1cnc2c(N3CCCCC3)cccc2c1N1CCOCC1 [Example 29, N-[(4S)-3,4-dihydro-2H-chromen-4-yl]-4-(morpholin-4-yl)-8-(piperidin-1-yl)quinoline-3-carboxamide]	< 0.1 µg/mL	31.6 to 316 nM
CC(C)(C)OC(=O)Nc1cccc2c(N3CCOCC3)c(C(=O)N[C@H]3CCOc4ccccc43)cnc12 [Example 26, tert-butyl {3-[(4S)-3,4-dihydro-2H-chromen-4-ylcarbamoyl]-4-(morpholin-4-yl)quinolin-8-yl}carbamate]	< 0.1 µg/mL	3.16 to 31.6 nM
CC(C)CCc1cccc2c(N(C)C)c(C(=O)N[C@H]3CCOc4ccccc43)cnc12 [Example 3, (S)—N-(Chroman-4-yl)-4-(dimethylamino)-8-isopentylquinoline-3-carboxamide]	< 1 µg/mL	3.16 to 31.6 nM
CN(C)c1c(C(=O)N[C@H]2CCOc3ccccc32)cnc2c(C3=CCOCC3)cccc12 [Example 13, (S)—N-(Chroman-4-yl)-8-(3,6-dihydro-2H-pyran-4-yl)-4-(dimethylamino)quinoline-3-carboxamide]	< 1 µg/mL	31.6 to 316 nM
C[C@@H]1CN(c2cccc3c(N4CCOCC4)c(C(=O)N[C@H]4CCOc5ccccc54)cnc23)C[C@@H](C)O1 [Example 32, N-[(4S)-3,4-dihydro-2H-chromen-4-yl]-8-[(2R,6R)-2,6-dimethylmorpholin-4-yl]-4-(morpholin-4-yl)quinoline-3-carboxamide]	< 1 µg/mL	316 to 5010 nM
C[C@H]1COCCN1c1cccc2c(N3CCOCC3)c(C(=O)N[C@H]3CCOc4ccccc43)cnc12 [Example 23, N-[(4S)-3,4-Dihydro-2H-chromen-4-yl]-8-[(3S)-3-methylmorpholin-4-yl]-4-(morpholin-4-yl)quinoline-3-carboxamide]	< 10 µg/mL	316 to 5010 nM
C[C@@H]1COCCN1c1cccc2c(N3CCOCC3)c(C(=O)N[C@H]3CCOc4ccccc43)cnc12 [Example 27, N-[(4S)-3,4-dihydro-2H-chromen-4-yl]-8-[(3R)-3-methylmorpholin-4-yl]-4-(morpholin-4-yl)quinoline-3-carboxamide]	< 1 µg/mL	316 to 5010 nM
CN(C)c1c(C(=O)N[C@H]2CCOc3ccccc32)cnc2c(C3CCCC3)cccc12 [Example 8, (S)—N-(Chroman-4-yl)-8-cyclopentyl-4-(dimethylamino)quinoline-3-carboxamide]	< 0.1 µg/mL	< 3.16 nM
CN(C)c1c(C(=O)N[C@H]2CCOc3ccccc32)cnc2c(C3=CCCCCC3)cccc12 [Example 14, (S)—N-(Chroman-4-yl)-8-(cyclohept-1-en-1-yl)-4-(dimethylamino)quinoline-3-carboxamide]	< 0.1 µg/mL	3.16 to 31.6 nM
O=C(N[C@H]1CCOc2ccccc21)c1cnc2c(NC3CCCCC3)cccc2c1N1CCOCC1 [Example 25, 8-(cyclohexylamino)-N-[(4S)-3,4-dihydro-2H-chromen-4-yl]-4-(morpholin-4-yl)quinoline-3-carboxamide]	< 10 µg/mL	3.16 to 31.6 nM
CN(C)c1c(C(=O)N[C@H]2CCOc3ccccc32)cnc2c(C3CCOCC3)cccc12 [Example 6, (S)—N-(Chroman-4-yl)-4-(dimethylamino)-8-(tetrahydro-2H-pyran-4-yl)quinoline-3-carboxamide]	< 1 µg/mL	31.6 to 316 nM
CN(C)c1c(C(=O)N[C@H]2CCOc3ccccc32)cnc2c(C3COC3)cccc12 [Example 5, (S)—N-(Chroman-4-yl)-4-(dimethylamino)-8-(oxetan-3-yl)quinoline-3-carboxamide]	< 10 µg/mL	316 to 5010 nM
CC(C)c1c(C(=O)N[C@H]2CCOc3ccccc32)cnc2c(N3C[C@H](C)C[C@H](C)C3)cccc12 [Example 36, N-[(4S)-3,4-dihydro-2H-chromen-4-yl]-8-[(3R,5S)-3,5-dimethylpiperidin-1-yl]-4-(propan-2-yl)quinoline-3-carboxamide]	< 0.1 µg/mL	3.16 to 31.6 nM
CC1CC(C)CN(c2c(F)ccc3c(N(C)C)c(C(=O)N[C@H]4CCc5ccccc54)cnc23)C1 (stereo partly drawn) [Example 41, N-[(1S)-2,3-dihydro-1H-inden-1-yl]-4-(dimethylamino)-8-(3,5-dimethylpiperidin-1-yl)-7-fluoroquinoline-3-carboxamide]	< 1 µg/mL	3.16 to 31.6 nM
CN(C)c1c(C(=O)N[C@H]2CCOc3ccccc32)cnc2c(C3=CCNCC3)cccc12 [Example 21, (S)—N-(Chroman-4-yl)-4-(dimethylamino)-8-(1,2,3,6-tetrahydropyridin-4-yl)quinoline-3-carboxamide]	< 10 µg/mL	316 to 5010 nM
CN(C)c1c(C(=O)N[C@H]2CCc3ccccc32)cnc2c(N3CCCCC3)c(F)ccc12 [Example 44, N-[(1S)-2,3-dihydro-1H-inden-1-yl]-4-(dimethylamino)-7-fluoro-8-(piperidin-1-yl)quinoline-3-carboxamide]	< 1 µg/mL	3.16 to 31.6 nM
C=C(C)c1cccc2c(N(C)C)c(C(=O)N[C@H]3CCOc4ccccc43)cnc12 [Example 9, (S)—N-(Chroman-4-yl)-4-(dimethylamino)-8-(prop-1-en-2-yl)quinoline-3-carboxamide]	< 1 µg/mL	31.6 to 316 nM
CN(C)c1c(C(=O)N[C@H]2CCOc3ccccc32)cnc2c(C3=CCCC3)cccc12 [Example 7, (S)—N-(Chroman-4-yl)-8-(cyclopent-1-en-1-yl)-4-(dimethylamino)quinoline-3-carboxamide]	< 1 µg/mL	3.16 to 31.6 nM
CC(=O)Nc1cccc2c(N3CCOCC3)c(C(=O)N[C@H]3CCOc4ccccc43)cnc12 [Example 28, 8-(acetylamino)-N-[(4S)-3,4-dihydro-2H-chromen-4-yl]-4-(morpholin-4-yl)quinoline-3-carboxamide]	< 10 µg/mL	316 to 5010 nM
CN(C)c1c(C(=O)N[C@H]2CCc3ccccc32)cnc2c(N3CCC(F)(F)CC3)c(F)ccc12 [Example 39, 8-(4,4-difluoropiperidin-1-yl)-N-[(1S)-2,3-dihydro-1H-inden-1-yl]-4-(dimethylamino)-7-fluoroquinoline-3-carboxamide]	< 1 µg/mL	3.16 to 31.6 nM
